Here are results for nine compounds from US20110152246A1, “NOVEL INHIBITORS OF HEPATITIS C VIRUS REPLICATION” (InterMune, Inc., priority 2009, published 2011).

Where only a bound is given, the exact number is not on record here.

The assay relates to Huh7 cells containing HCV replicons with an integrated luciferase reporter gene. The experiment in a line: HCV Replicon Assay (luciferase reporter). Particulars: Hepatitis C virus, Huh-7; Huh7 HCV replicon cells, luciferase activity, approximately 48 hr incubation; read-out: EC50. In kind it is cell-based. Here is the method:
Huh7 cells containing HCV replicons with an integrated luciferase reporter gene are maintained at 37° C. in 5% CO2 in Dulbecco's modified Eagle's medium (DMEM; Mediatech, Herndon, Va.) containing 10% heat-inactivated fetal bovine serum (FBS; Mediatech, Herndon, Va.), 2 mM L-glutamine (Cambrex Bioscience, Walkersville, Md.), 1% non essential amino acids (Lonza, Walkersville, Md.), 50 IU/mL penicillin (Mediatech, Herndon, Va.), […] streptomycin (Mediatech, Herndon, Va.) and 0.5 mg/mL G418 (Promega, Madison, Wis.). Cells are sub-divided 1:3 or 4 every 2-3 days.
24 h prior to the assay, Huh7 cells containing sub-genomic HCV replicons are collected, counted, and plated in Nunclon 96-well tissue culture plates (ThermoFisher, Rochester, N.Y.) at 5000 cells/well in […] standard maintenance medium (above) and incubated in the conditions above. To initiate the assay, culture medium is removed, and replaced with […] maintenance media lacking G418. Test compounds are serially diluted three-fold in dimethyl sulfoxide (DMSO) in two duplicate rows for each EC50 determination. These compound solutions are diluted ten-fold in DMEM lacking serum and G418. […] of these compound solutions in media are added to duplicate tissue culture plates. The final volume is 100 μL with a DMSO concentration of 1%. Compound concentrations are adjusted to appropriately define a dose response curve. Typical dilution series range from […] to 1.69 nM final concentrations to 1 nM to 16.9 fM final. Plates are incubated at 37° C. for approximately 48 hr.
Following incubation, media is removed from one of the two duplicate plates and replicon-reporter luciferase activity is measured using a Bright-Glo luciferase assay kit (Promega, Madison, Wis.) according to manufacturer's instructions. Semi-log plots of luciferase activity versus the logarithm of compound concentration are fit to a 4-parameter logistic function using XLfit software (IDBS Inc., Guildford, UK) to determine EC50.
(In general: In antiviral work, replicon cells carry a viral genome segment that copies itself.)
In the case of `COC(=O)N[C@@H](C(=O)N1CCC[C@H]1c1ncc(-c2ccc(-c3ccc(-c4cnc([C@@H]5CCCN5C(=O)[C@H](NC(=O)OC)C(C)C)[nH]4)c4ccccc34)cc2)[nH]1)C(C)C` [Compound 324], the EC50 was less than 10 nM. With `COC(=O)N[C@H](C(=O)N1CCC[C@H]1c1ncc(-c2ccc(-c3ccc(-c4cnc([C@@H]5CCCN5C(=O)[C@@H](NC(=O)OC)C(C)C)[nH]4)c4ccccc34)cc2)[nH]1)C(C)C` [Compound 301] the figure was less than 10 nM; with `COC(=O)NCC(=O)N1CCC[C@H]1c1ncc(-c2ccc(-c3ccc(-c4cnc([C@@H]5CCCN5C(=O)CNC(=O)OC)[nH]4)c4ccccc34)cc2)[nH]1` [Compound 325], less than 10 nM; with `COC(=O)N[C@H](C(=O)N1CCC[C@H]1C(=O)Nc1ccc2cc(-c3cnc(NC(=O)[C@@H]4CCCN4C(=O)[C@@H](NC(=O)OC)C(C)C)nc3)ccc2n1)C(C)C` [Compound 212], less than 10 nM.

In the case of `COC(=O)N[C@H](C(=O)N1CCOC[C@H]1c1nc(-c2ccc3cc(-c4ccc5[nH]c([C@@H]6COCCN6C(=O)[C@@H](NC(=O)OC)C(C)C)nc5c4)ccc3c2)c[nH]1)C(C)C` [Compound 419], the EC50 is less than 10 nM. To `CC(C)[C@H](Nc1ncccn1)C(=O)N1CCC[C@H]1c1nc(-c2ccc3cc(-c4ccc5[nH]c([C@@H]6CCCN6C(=O)[C@@H](Nc6ncccn6)C(C)C)nc5c4)ccc3c2)c[nH]1` [Compound 420] belongs less than 10 nM; to `COC(=O)N[C@H](C(=O)N1CCCC[C@H]1c1nc(-c2ccc3cc(-c4ccc5[nH]c([C@@H]6CCCCN6C(=O)[C@@H](NC(=O)OC)C(C)C)nc5c4)ccc3c2)c[nH]1)C(C)C` [Compound 418], less than 10 nM; to `COC(=O)N[C@H](C(=O)N1CCC[C@H]1c1nc(-c2ccc(-c3ccc(-c4c[nH]c([C@@H]5CCCN5C(=O)[C@@H](NC(=O)OC)C(C)C)n4)c4sc(C)nc34)cc2)c[nH]1)C(C)C` [Compound 310], less than 10 nM.

Consider `COC(=O)N[C@H](C(=O)N1CCC[C@H]1c1nc(-c2ccc(-c3ccc(-c4c[nH]c([C@@H]5CCCN5C(=O)[C@@H](NC(=O)OC)C(C)C)n4)c4c3OCO4)cc2)c[nH]1)C(C)C` [Compound 312], for which the EC50 is less than 10 nM.

Broadly, the EC50 is the concentration needed to bring the measured effect to its halfway point.
